# Experimental data from ChEMBL document CHEMBL1201862, “PubChem BioAssay data set” (2004).
#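 Results reflect a 48-hour exposure of cells in 96-well plates to compound at five concentrations. GI50 is the concentration that inhibits growth by half.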 Active and inactive are the calls of the source. Cut-off read from the data, not from the text of the source: active = GI50 up to about 1.1 µM and inactive = higher.
# Experiments:
# Test in all cases: inhibition of tumour cell growth, NCI panel, 48 h
# 786-0 = test system: 786-0
# A498 = test system: A498
# A549 = test system: A549
# ACHN = test system: ACHN
# CAKI-1 = test system: CAKI-1
# CCRF-CEM = test system: CCRF-CEM
# COLO 205 = test system: COLO 205
# DLD-1 = test system: DLD-1
# DMS-114 = test system: DMS-114
# DMS-273 = test system: DMS-273
# EKVX = test system: EKVX
# HCC 2998 = test system: HCC 2998
# HCT-116 = test system: HCT-116
# HCT-15 = test system: HCT-15
# HL-60 = test system: HL-60
# HOP-18 = test system: HOP-18
# HOP-62 = test system: HOP-62
# HOP-92 = test system: HOP-92
# HT-29 = test system: HT-29
# IGROV-1 = test system: IGROV-1
# K562 = test system: K562
# KM-20L2 = test system: KM-20L2
# KM12 = test system: KM12
# LOX IMVI = test system: LOX IMVI
# LXFL 529 = test system: LXFL 529
# M14 = test system: M14
# M19-MEL = test system: M19-MEL
# MOLT-4 = test system: MOLT-4
# Malme-3M = test system: Malme-3M
# NCI-H226 = test system: NCI-H226
# NCI-H23 = test system: NCI-H23
# NCI-H460 = test system: NCI-H460
# NCI-H522 = test system: NCI-H522
# OVCAR-3 = test system: OVCAR-3
# OVCAR-4 = test system: OVCAR-4
# OVCAR-5 = test system: OVCAR-5
# OVCAR-8 = test system: OVCAR-8
# RPMI-8226 = test system: RPMI-8226
# RXF 631 = test system: RXF 631
# SF-268 = test system: SF-268
# SF-295 = test system: SF-295
# SF-539 = test system: SF-539
# SK-MEL-28 = test system: SK-MEL-28
# SK-MEL-2 = test system: SK-MEL-2
# SK-MEL-5 = test system: SK-MEL-5
# SK-OV-3 = test system: SK-OV-3
# SN12C = test system: SN12C
# SNB-19 = test system: SNB-19
# SNB-75 = test system: SNB-75
# SNB-78 = test system: SNB-78
# SR = test system: SR
# SW-620 = test system: SW-620
# TK-10 = test system: TK-10
# U-251 = test system: U-251
# UACC-257 = test system: UACC-257
# UACC-62 = test system: UACC-62
# UO-31 = test system: UO-31
# XF498 = test system: XF498
# RXF 393 = test system: RXF 393
structure (smiles),measurement,setting,value
COc1cc(C2(C)SCCCS2)c(I)c(OC)c1OC,GI50,786-0,> 100 µM (inactive)
same,GI50,A498,> 100 µM (inactive)
same,GI50,A549,> 100 µM (inactive)
same,GI50,ACHN,> 100 µM (inactive)
same,GI50,CAKI-1,> 100 µM (inactive)
same,GI50,CCRF-CEM,> 100 µM (inactive)
same,GI50,COLO 205,> 100 µM (inactive)
same,GI50,DLD-1,> 100 µM (inactive)
same,GI50,DMS-114,> 100 µM (inactive)
same,GI50,DMS-273,> 100 µM (inactive)
same,GI50,EKVX,> 100 µM (inactive)
same,GI50,HCC 2998,> 100 µM (inactive)
same,GI50,HCT-116,> 100 µM (inactive)
same,GI50,HCT-15,> 100 µM
same,GI50,HL-60,> 100 µM (inactive)
same,GI50,HOP-18,> 100 µM (inactive)
same,GI50,HOP-62,> 100 µM (inactive)
same,GI50,HOP-92,> 100 µM (inactive)
same,GI50,HT-29,> 100 µM (inactive)
same,GI50,IGROV-1,> 100 µM (inactive)
same,GI50,K562,87.5 µM (inactive)
same,GI50,KM-20L2,> 100 µM (inactive)
same,GI50,KM12,> 100 µM (inactive)
same,GI50,LOX IMVI,> 100 µM (inactive)
same,GI50,LXFL 529,> 100 µM (inactive)
same,GI50,M14,> 100 µM (inactive)
same,GI50,M19-MEL,> 100 µM (inactive)
same,GI50,MOLT-4,> 100 µM (inactive)
same,GI50,Malme-3M,> 100 µM (inactive)
same,GI50,NCI-H226,> 100 µM (inactive)
same,GI50,NCI-H23,> 100 µM (inactive)
same,GI50,NCI-H460,> 100 µM (inactive)
same,GI50,NCI-H522,> 100 µM (inactive)
same,GI50,OVCAR-3,> 100 µM (inactive)
same,GI50,OVCAR-4,> 100 µM (inactive)
same,GI50,OVCAR-5,> 100 µM (inactive)
same,GI50,OVCAR-8,> 100 µM (inactive)
same,GI50,RPMI-8226,> 100 µM (inactive)
same,GI50,RXF 631,> 100 µM (inactive)
same,GI50,SF-268,> 100 µM (inactive)
same,GI50,SF-295,> 100 µM (inactive)
same,GI50,SF-539,> 100 µM (inactive)
same,GI50,SK-MEL-28,> 100 µM (inactive)
same,GI50,SK-MEL-2,> 100 µM (inactive)
same,GI50,SK-MEL-5,> 100 µM (inactive)
same,GI50,SK-OV-3,> 100 µM (inactive)
same,GI50,SN12C,> 100 µM (inactive)
same,GI50,SNB-19,> 100 µM (inactive)
same,GI50,SNB-75,> 100 µM (inactive)
same,GI50,SNB-78,> 100 µM (inactive)
same,GI50,SR,> 100 µM (inactive)
same,GI50,SW-620,> 100 µM (inactive)
same,GI50,TK-10,> 100 µM (inactive)
same,GI50,U-251,> 100 µM (inactive)
same,GI50,UACC-257,> 100 µM (inactive)
same,GI50,UACC-62,> 100 µM (inactive)
same,GI50,UO-31,> 100 µM (inactive)
same,GI50,XF498,> 100 µM (inactive)
FC(F)(F)c1nc(Br)[nH]c1C(F)(F)F,GI50,786-0,> 100 µM (inactive)
same,GI50,A549,> 100 µM (inactive)
same,GI50,ACHN,> 100 µM (inactive)
same,GI50,CAKI-1,> 100 µM (inactive)
same,GI50,CCRF-CEM,66.5 µM (inactive)
same,GI50,COLO 205,> 100 µM (inactive)
same,GI50,DLD-1,> 100 µM (inactive)
same,GI50,DMS-114,40.2 µM (inactive)
same,GI50,DMS-273,> 100 µM (inactive)
same,GI50,EKVX,> 100 µM (inactive)
same,GI50,HCC 2998,49.9 µM (inactive)
same,GI50,HCT-116,45.7 µM (inactive)
same,GI50,HCT-15,> 100 µM
same,GI50,HL-60,> 100 µM (inactive)
same,GI50,HOP-18,28.8 µM (inactive)
same,GI50,HOP-62,32 µM (inactive)
same,GI50,HOP-92,27.8 µM (inactive)
same,GI50,HT-29,> 100 µM (inactive)
same,GI50,IGROV-1,> 100 µM (inactive)
same,GI50,K562,43 µM (inactive)
same,GI50,KM-20L2,64.6 µM (inactive)
same,GI50,KM12,> 100 µM (inactive)
same,GI50,LOX IMVI,> 100 µM (inactive)
same,GI50,LXFL 529,92.3 µM (inactive)
same,GI50,M14,> 100 µM (inactive)
same,GI50,M19-MEL,> 100 µM (inactive)
same,GI50,MOLT-4,> 100 µM (inactive)
same,GI50,Malme-3M,> 100 µM (inactive)
same,GI50,NCI-H226,51.9 µM (inactive)
same,GI50,NCI-H23,86.7 µM (inactive)
same,GI50,NCI-H460,> 100 µM (inactive)
same,GI50,OVCAR-3,60.4 µM (inactive)
same,GI50,OVCAR-4,> 100 µM (inactive)
same,GI50,OVCAR-5,> 100 µM (inactive)
same,GI50,OVCAR-8,> 100 µM (inactive)
same,GI50,RPMI-8226,51.3 µM (inactive)
same,GI50,RXF 393,73.5 µM (inactive)
same,GI50,RXF 631,61.4 µM (inactive)
same,GI50,SF-268,> 100 µM (inactive)
same,GI50,SF-295,> 100 µM (inactive)
same,GI50,SF-539,> 100 µM (inactive)
same,GI50,SK-MEL-28,> 100 µM (inactive)
same,GI50,SK-MEL-2,38.4 µM (inactive)
same,GI50,SK-MEL-5,76.7 µM (inactive)
same,GI50,SK-OV-3,> 100 µM (inactive)
same,GI50,SN12C,69 µM (inactive)
same,GI50,SNB-19,> 100 µM (inactive)
same,GI50,SNB-75,> 100 µM (inactive)
same,GI50,SNB-78,> 100 µM (inactive)
same,GI50,SR,35.6 µM (inactive)
same,GI50,SW-620,> 100 µM (inactive)
same,GI50,TK-10,> 100 µM (inactive)
same,GI50,U-251,67.5 µM (inactive)
same,GI50,UACC-257,> 100 µM (inactive)
same,GI50,UACC-62,37.6 µM (inactive)
same,GI50,UO-31,> 100 µM (inactive)
same,GI50,XF498,> 100 µM (inactive)
